# Measured values as given in article PMC10648349, “Aromatic Diboronic Acids as Effective KPC/AmpC Inhibitors” (Molecules, 2023).
# Experiments:
# E. coli 77 CMY-2(+) [1] = test: screening test of direct antimicrobial activity (STDA), disc-diffusion; type: cell-based; settings: Escherichia coli; 0.3 mg per disc; - no zone; read-out: Diameter of inhibition zone around disc with tested agent
# Experimental: (§1) Prior to combination disc tests, screening tests of direct antimicrobial activity (STDA) of the tested agent against β-lactamase-producing strains were performed by the disc-diffusion method. Discs with 0.3 mg, 0.1 mg, and 0.03 mg of each agent were examined. The highest amount of an agent that caused no effect on bacterial growth was used in further experiments.
# [2] = tested on: K. pneumoniae ATCC 700603 ESBL(+); test: as above; type: cell-based; settings: Klebsiella pneumoniae, ATCC700603; 0.3 mg per disc; - no zone; read-out: Diameter of inhibition zone around disc with tested agent
# Experimental: as §1
# [3] = tested on: K. pneumoniae ATCC BAA 1705 KPC(+); test: as above; type: cell-based; settings: Klebsiella pneumoniae, BAA1705; 0.3 mg per disc; - no zone; read-out: Diameter of inhibition zone around disc with tested agent
# Experimental: as §1
# [4] = tested on: P. aeruginosa MUW 700 AmpC(+); test: as above; type: cell-based; settings: Pseudomonas aeruginosa; 0.3 mg per disc; - no zone; read-out: Diameter of inhibition zone around disc with tested agent
# Experimental: as §1
# E. coli 76 KPC-2(+) = test: MIC of tested agent alone, microdilution; type: cell-based; settings: Escherichia coli; read-out: MIC of agent alone
# Method in brief: (§2)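 Broth microdilution checkerboard: β-lactam in seven two-fold dilutions (1–64 mg/L) against tested agent or PBA in three two-fold dilutions (4–16 mg/L). Antibiotic MICs were read at each agent level, with agent-alone MICs run in parallel by microdilution.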
# E. coli 77 CMY-2(+) [5] = test: MIC of tested agent alone, microdilution; type: cell-based; settings: Escherichia coli; read-out: MIC of agent alone
# Method in brief: as §2
# [6] = tested on: K. pneumoniae 81 KPC-3(+); test: MIC of tested agent alone, microdilution; type: cell-based; settings: Klebsiella pneumoniae; read-out: MIC of agent alone
# Method in brief: as §2
# [7] = tested on: K. pneumoniae 83 KPC-3(+), CTX-M-3(+); test: MIC of tested agent alone, microdilution; type: cell-based; settings: Klebsiella pneumoniae; read-out: MIC of agent alone
# Method in brief: as §2
# [8] = tested on: K. pneumoniae ATCC BAA-1705 KPC-2(+); test: MIC of tested agent alone, microdilution; type: cell-based; settings: Klebsiella pneumoniae, ATCCBAA1705; read-out: MIC of agent alone
# Method in brief: as §2
# [9] = tested on: P. aeruginosa MUW 700 AmpC(+); test: MIC of tested agent alone, microdilution; type: cell-based; settings: Pseudomonas aeruginosa; read-out: MIC of agent alone
# Method in brief: as §2
# [10] = tested on: K. pneumoniae ATCC 700603 ESBL-positive; test: combination disc test CDT-ESBL; type: cell-based; settings: Klebsiella pneumoniae, ATCC700603; agent 0.1 mg per disc; read-out: Diameter of inhibition zone, CAZ-30 disc with agent
# [11] = tested on: E. coli 76 KPC-2-positive; test: checkerboard microdilution, antibiotic plus tested agent; type: cell-based, Escherichia coli
# Method in brief: (§3)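 Read-out is the antibiotic MIC with agent present, plus FICI = combined/alone MIC ratios summed for both partners. Meropenem pairs served for carbapenemase strains and ceftazidime pairs for the AmpC strain. Agent or PBA was tested at 4–16 mg/L.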
# [12] = tested on: K. pneumoniae 81 KPC-3-positive; test: as above; type: cell-based, Klebsiella pneumoniae
# Method in brief: as §3
# [13] = tested on: K. pneumoniae 83 KPC-3-positive, CTX-M-3-positive; test: as above; type: cell-based, Klebsiella pneumoniae
# Method in brief: as §3
# [14] = tested on: K. pneumoniae ATCC BAA-1705 KPC-2-positive; test: as above; type: cell-based, Klebsiella pneumoniae
# Method in brief: as §3
# [15] = tested on: P. aeruginosa MUW 700 cAmpC-positive; test: as above; type: cell-based, Pseudomonas aeruginosa
# Method in brief: as §3
MIC (E. coli 76 KPC-2(+)) [µg/mL],MIC (E. coli 77 CMY-2(+) [5]) [µg/mL],MIC [6] [µg/mL],MIC [7] [µg/mL],MIC [8] [µg/mL],MIC [9] [µg/mL],SMILES,zone of inhibition at 300 µg/disc (E. coli 77 CMY-2(+) [1]) [mm],zone of inhibition at 300 µg/disc [2] [mm],zone of inhibition at 300 µg/disc [3] [mm],zone of inhibition at 300 µg/disc [4] [mm],zone of inhibition at 100 µg/disc [10] [mm],Average FICI with ERT [11],Average FICI with IMI [11],Average FICI with MEM [11],The lowest FICI with ERT [11],The lowest FICI with IMI [11],Average FICI with ceftazidime [15],Interpretation of the average FICI with ceftazidime [15],Interpretation of the lowest FICI with ceftazidime [15],The lowest FICI with ceftazidime [15],further results
100,100,200,200,200,200,OB(O)c1cc(F)c(B(O)O)cc1F [1e],18,14,15,14,15,0.39,0.51,0.51,0.29,0.41,0.38,"S (FICI ≤ 0.5, synergy)","S (FICI ≤ 0.5, synergy)",0.29,The lowest FICI with MEM [11]: 0.41; Average FICI with ERT [12]: 0.55; Average FICI with IMI [12]: 0.38; Average FICI with MEM [12]: 0.46; The lowest FICI with ERT [12]: 0.52; The lowest FICI with IMI [12]: 0.29; The lowest FICI with MEM [12]: 0.33; Average FICI with ERT [13]: 0.63; Average FICI with IMI [13]: 0.55; Average FICI with MEM [13]: 0.63; The lowest FICI with ERT [13]: 0.33; The lowest FICI with IMI [13]: 0.52; The lowest FICI with MEM [13]: 0.33; Average FICI with ERT [14]: 0.88; Average FICI with IMI [14]: 0.71; Average FICI with MEM [14]: 0.46; The lowest FICI with ERT [14]: 0.58; The lowest FICI with IMI [14]: 0.54; The lowest FICI with MEM [14]: 0.33
400,400,> 400,> 400,> 400,> 400,OB(O)c1ccc(B(O)O)c(F)c1 [1b],12,12,13,12,15,0.32,0.32,0.36,0.17,0.17,0.18,"S (FICI ≤ 0.5, synergy)","S (FICI ≤ 0.5, synergy)",0.14,The lowest FICI with MEM [11]: 0.27; Average FICI with ERT [12]: 0.43; Average FICI with IMI [12]: 0.35; Average FICI with MEM [12]: 0.28; The lowest FICI with ERT [12]: 0.27; The lowest FICI with IMI [12]: 0.26; The lowest FICI with MEM [12]: 0.08; Average FICI with ERT [13]: 0.43; Average FICI with IMI [13]: 0.43; Average FICI with MEM [13]: 0.60; The lowest FICI with ERT [13]: 0.27; The lowest FICI with IMI [13]: 0.27; The lowest FICI with MEM [13]: 0.27; Average FICI with ERT [14]: 0.51; Average FICI with IMI [14]: 0.43; Average FICI with MEM [14]: 0.43; The lowest FICI with ERT [14]: 0.51; The lowest FICI with IMI [14]: 0.27; The lowest FICI with MEM [14]: 0.27
400,400,400,400,400,> 400,OB(O)c1cc(F)c(B(O)O)c(F)c1 [1d],13,14,15,12,14,0.36,0.44,0.44,0.27,0.29,0.43,"S (FICI ≤ 0.5, synergy)","S (FICI ≤ 0.5, synergy)",0.27,The lowest FICI with MEM [11]: 0.29; Average FICI with ERT [12]: 0.40; Average FICI with IMI [12]: 0.36; Average FICI with MEM [12]: 0.29; The lowest FICI with ERT [12]: 0.17; The lowest FICI with IMI [12]: 0.27; The lowest FICI with MEM [12]: 0.10; Average FICI with ERT [13]: 0.69; Average FICI with IMI [13]: 0.52; Average FICI with MEM [13]: 0.61; The lowest FICI with ERT [13]: 0.52; The lowest FICI with IMI [13]: 0.51; The lowest FICI with MEM [13]: 0.29; Average FICI with ERT [14]: 0.86; Average FICI with IMI [14]: 0.69; Average FICI with MEM [14]: 0.44; The lowest FICI with ERT [14]: 0.54; The lowest FICI with IMI [14]: 0.52; The lowest FICI with MEM [14]: 0.29
200,200,400,400,400,> 400,OB(O)c1cc(F)c(F)c(B(O)O)c1 [2d],15,11,11,12,13,–,–,–,–,–,0.35,"S (FICI ≤ 0.5, synergy)","S (FICI ≤ 0.5, synergy)",0.26,–
